Assay results as given in US9139532B2, “Pyrazolyl guanidine F1F0-atpase inhibitors and therapeutic uses thereof” (Lycera Corporation, priority 2010, dated 2015).
Read-outs that look alike come from different tables or passages of the source.

Key:
Ramos cells = assay: Cytotoxicity in Ramos cells; type: cell-based; conditions: cytotoxicity in Ramos cells, read-out: Ramos Cell EC50
F1F0-ATPase = target: T1, F1F0-ATPase (Bos taurus, UniProt P13621); assay: Inhibition of F1F0-ATPase activity in synthesizing ATP; type: biochemical; conditions: inhibition of ATP synthesis by F1F0-ATPase; read-out: ATP Syn IC50
T1 construct: from tissue

Compound	EC50 (Ramos cells) [µM]	IC50 (F1F0-ATPase) [µM]	EC50 (Ramos cells; Homo sapiens) [µM]
CCOCC(C)NC(=NC(=O)c1ccc(F)cc1)Nc1cc(-c2ccc(F)cc2)n[nH]1 (stereo not drawn) [Compound A-269]	< 10	< 10	–
O=C(/N=C(/NCC1CCO1)Nc1cc(-c2ccc(F)cc2)n[nH]1)c1ccc(F)cc1 (stereo not drawn) [Compound A-270]	> 10	< 10	–
CC(C)OCCN/C(=N/C(=O)c1ccc(F)cc1)Nc1cc(-c2ccc(F)cc2)n[nH]1 [Compound A-271]	< 10	< 10	–
COC[C@H](C)N/C(=N/C(=O)c1ccc(Cl)cc1)Nc1cc(-c2ccc(F)cc2)n[nH]1 [Compound A-272]	–	< 10	< 10
COCC(C)NC(=NC(=O)c1ccc(Cl)c(F)c1)Nc1cc(-c2cc(F)cc(F)c2)n[nH]1 (stereo not drawn) [Compound A-273]	< 10	< 10	–
COCC(C)NC(=NC(=O)c1ccc(F)c(F)c1)Nc1cc(-c2ccc(F)cc2)n[nH]1 (stereo not drawn) [Compound A-274]	< 10	< 10	–
COCC(C)NC(=NC(=O)c1ccc(F)cc1)Nc1cc(-c2cc(F)cc(F)c2)n[nH]1 (stereo not drawn) [Compound A-275]	< 10	< 10	–
COCC(C)NC(=NC(=O)c1ccc(F)cc1)Nc1cc(-c2ccc(Cl)cc2)n[nH]1 (stereo not drawn) [Compound A-276]	< 10	< 10	–
CCOCCCN/C(=N/C(=O)c1ccc(F)c(F)c1)Nc1cc(-c2ccc(Cl)cc2)n[nH]1 [Compound A-277]	> 10	< 10	–
CCOCCCNC(=NC(=O)c1ccc(Cl)cc1)Nc1cc(-c2ccc(F)cc2)n[nH]1 [Compound A-278]	–	< 10	> 10
CCOCCCN/C(=N/C(=O)c1cccc(F)c1)Nc1cc(-c2ccc(F)cc2)n[nH]1 [Compound A-279]	< 10	< 10	–
CCOCCCN/C(=N/C(=O)c1ccc(F)cc1)Nc1cc(-c2ccc(F)cc2)n[nH]1 [Compound A-280]	> 10	< 10	–
CCOCCCN/C(=N/C(=O)c1ccc(F)c(F)c1)Nc1cc(-c2ccc(C)c(F)c2)n[nH]1 [Compound A-281]	< 10	< 10	–
CCOCCCN/C(=N/C(=O)c1ccc(C(F)(F)F)cc1)Nc1cc(-c2cc(F)cc(F)c2)n[nH]1 [Compound A-282]	< 10	< 10	–
CC(C)OCCCNC(=NC(=O)c1ccc(F)c(F)c1)Nc1cc(-c2cc(F)cc(Cl)c2)n[nH]1 [Compound A-283]	–	< 10	< 10
O=C(/N=C(\Nc1cc(-c2cc(F)cc(Cl)c2)n[nH]1)NC1CCC1)c1ccc(F)c(F)c1 [Compound A-284]	< 10	< 10	–
CCC(C)NC(=NC(=O)c1ccc(F)c(F)c1)Nc1cc(-c2cc(F)cc(Cl)c2)n[nH]1 (stereo not drawn) [Compound A-285]	–	< 10	< 10
CC(C)N/C(=N/C(=O)c1ccc(F)c(F)c1)Nc1cc(-c2cc(F)cc(Cl)c2)n[nH]1 [Compound A-286]	< 10	< 10	–
CC(C)CN/C(=N/C(=O)c1ccc(F)c(F)c1)Nc1cc(-c2cc(F)cc(Cl)c2)n[nH]1 [Compound A-287]	< 10	< 10	–
CC1(NC(=NC(=O)c2ccc(F)c(F)c2)Nc2cc(-c3cc(F)cc(Cl)c3)n[nH]2)CCCC1 [Compound A-288]	–	< 10	< 10

Compound	EC50 (Ramos cells) [µM]	IC50 (F1F0-ATPase) [µM]	EC50 (Ramos cells; Homo sapiens) [µM]
O=C(/N=C(\Nc1cc(-c2cc(F)cc(Cl)c2)n[nH]1)NC1CCCC1)c1ccc(F)c(F)c1 [Compound A-289]	< 10	< 10	–
CC(C)(C)N/C(=N/C(=O)c1ccc(F)c(F)c1)Nc1cc(-c2cc(F)cc(Cl)c2)n[nH]1 [Compound A-290]	< 10	< 10	–
O=C(/N=C(\Nc1cc(-c2cc(F)cc(F)c2)n[nH]1)NC1CCCC1)c1ccc(C(F)(F)F)cc1 [Compound A-291]	< 10	< 10	–
O=C(N=C(NCc1ccc(F)cc1Cl)Nc1cc(-c2cc(F)cc(F)c2)n[nH]1)c1ccc(C(F)(F)F)cc1 [Compound A-292]	–	< 10	< 10
CC(C)CN/C(=N/C(=O)c1ccc(C(F)(F)F)cc1)Nc1cc(-c2cc(F)cc(F)c2)n[nH]1 [Compound A-293]	< 10	< 10	–
O=C(N=C(Nc1cc(-c2cc(F)cc(F)c2)n[nH]1)Nc1ccc(F)cc1Cl)c1ccc(C(F)(F)F)cc1 [Compound A-294]	–	< 10	> 10
CC(C)C(C)N/C(=N/C(=O)c1ccc(C(F)(F)F)cc1)Nc1cc(-c2cc(F)cc(F)c2)n[nH]1 (stereo not drawn) [Compound A-295]	< 10	< 10	–
CC(C)NC(=NC(=O)c1ccc(C(F)(F)F)cc1)Nc1cc(-c2cc(F)cc(F)c2)n[nH]1 [Compound A-296]	–	< 10	< 10
CCC(C)NC(=NC(=O)c1ccc(C(F)(F)F)cc1)Nc1cc(-c2cc(F)cc(F)c2)n[nH]1 (stereo not drawn) [Compound A-297]	–	< 10	< 10
O=C(N=C(Nc1cc(-c2cc(F)cc(F)c2)n[nH]1)NC1CCC1)c1ccc(C(F)(F)F)cc1 [Compound A-298]	–	< 10	< 10
CC(C)(C)N/C(=N/C(=O)c1ccc(C(F)(F)F)cc1)Nc1cc(-c2cc(F)cc(F)c2)n[nH]1 [Compound A-299]	< 10	< 10	–
CCC(C)CNC(=NC(=O)c1cccc(C#N)c1)Nc1cc(-c2ccc(Cl)cc2)n[nH]1 (stereo not drawn) [Compound A-300]	–	< 10	< 10
CC(C)OCCCN/C(=N/C(=O)c1cccc(C#N)c1)Nc1cc(-c2ccc(Cl)cc2)n[nH]1 [Compound A-301]	< 10	< 10	–
N#Cc1cccc(C(=O)/N=C(\Nc2cc(-c3ccc(Cl)cc3)n[nH]2)NC2CCCC2)c1 [Compound A-302]	< 10	< 10	–
CC(C)CNC(=NC(=O)c1cccc(C#N)c1)Nc1cc(-c2ccc(Cl)cc2)n[nH]1 [Compound A-303]	–	< 10	< 10
CC(C)C(C)N/C(=N/C(=O)c1cccc(C#N)c1)Nc1cc(-c2ccc(Cl)cc2)n[nH]1 (stereo not drawn) [Compound A-304]	< 10	< 10	–
CC(C)NC(=NC(=O)c1cccc(C#N)c1)Nc1cc(-c2ccc(Cl)cc2)n[nH]1 [Compound A-305]	–	< 10	< 10
CCC(C)N/C(=N/C(=O)c1cccc(C#N)c1)Nc1cc(-c2ccc(Cl)cc2)n[nH]1 (stereo not drawn) [Compound A-306]	< 10	< 10	–
N#Cc1cccc(C(=O)/N=C(\Nc2cc(-c3ccc(Cl)cc3)n[nH]2)NC2CCC2)c1 [Compound A-307]	< 10	< 10	–
CC(C)(C)N/C(=N/C(=O)c1cccc(C#N)c1)Nc1cc(-c2ccc(Cl)cc2)n[nH]1 [Compound A-308]	< 10	< 10	–

Compound	EC50 (Ramos cells) [µM]	IC50 (F1F0-ATPase) [µM]	EC50 (Ramos cells; Homo sapiens) [µM]
N#Cc1cccc(C(=O)/N=C(\Nc2cc(-c3cc(F)cc(F)c3)n[nH]2)NC2CCCC2)c1 [Compound A-309]	< 10	< 10	–
CC(C)CN/C(=N/C(=O)c1cccc(C#N)c1)Nc1cc(-c2cc(F)cc(F)c2)n[nH]1 [Compound A-310]	< 10	< 10	–
CC(C)C(C)N/C(=N/C(=O)c1cccc(C#N)c1)Nc1cc(-c2cc(F)cc(F)c2)n[nH]1 (stereo not drawn) [Compound A-311]	< 10	< 10	–
CC(C)N/C(=N/C(=O)c1cccc(C#N)c1)Nc1cc(-c2cc(F)cc(F)c2)n[nH]1 [Compound A-312]	< 10	< 10	–
CCC(C)NC(=NC(=O)c1cccc(C#N)c1)Nc1cc(-c2cc(F)cc(F)c2)n[nH]1 (stereo not drawn) [Compound A-313]	–	< 10	< 10
N#Cc1cccc(C(=O)/N=C(\Nc2cc(-c3cc(F)cc(F)c3)n[nH]2)NC2CCC2)c1 [Compound A-314]	< 10	< 10	–
CC(C)(C)N/C(=N/C(=O)c1cccc(C#N)c1)Nc1cc(-c2cc(F)cc(F)c2)n[nH]1 [Compound A-315]	> 10	< 10	–
Cc1ccc(-c2cc(N/C(=N\C(=O)c3ccc(F)c(F)c3)NC3CCCC3)[nH]n2)cc1F [Compound A-316]	< 10	< 10	–
Cc1ccc(-c2cc(N/C(=N\C(=O)c3ccc(F)c(F)c3)NCc3ccc(F)cc3Cl)[nH]n2)cc1F [Compound A-317]	< 10	< 10	–
Cc1ccc(-c2cc(N/C(=N\C(=O)c3ccc(F)c(F)c3)Nc3ccc(F)cc3Cl)[nH]n2)cc1F [Compound A-318]	< 10	> 10	–
Cc1ccc(-c2cc(N/C(=N\C(=O)c3ccc(F)c(F)c3)NC(C)C)[nH]n2)cc1F [Compound A-319]	< 10	< 10	–
Cc1ccc(-c2cc(N/C(=N\C(=O)c3ccc(F)c(F)c3)NC3CCC3)[nH]n2)cc1F [Compound A-320]	< 10	< 10	–
CCC(C)CN/C(=N/C(=O)c1ccc(F)c(F)c1)Nc1cc(-c2ccc(C)c(F)c2)n[nH]1 (stereo not drawn) [Compound A-321]	< 10	< 10	–
Cc1ccc(-c2cc(N/C(=N\C(=O)c3ccc(F)c(F)c3)NCCCOC(C)C)[nH]n2)cc1F [Compound A-322]	< 10	< 10	–
Cc1ccc(-c2cc(N/C(=N\C(=O)c3ccc(F)c(F)c3)NCC(C)C)[nH]n2)cc1F [Compound A-323]	< 10	< 10	–
Cc1ccc(-c2cc(N/C(=N\C(=O)c3ccc(F)c(F)c3)NC(C)C(C)C)[nH]n2)cc1F (stereo not drawn) [Compound A-324]	< 10	< 10	–
CCC(C)N/C(=N/C(=O)c1ccc(F)c(F)c1)Nc1cc(-c2ccc(C)c(F)c2)n[nH]1 (stereo not drawn) [Compound A-325]	< 10	< 10	–
Cc1ccc(-c2cc(N/C(=N\C(=O)c3ccc(C(F)(F)F)cc3)NC3CCCC3)[nH]n2)cc1F [Compound A-326]	> 10	< 10	–
Cc1ccc(-c2cc(NC(=NC(=O)c3ccc(C(F)(F)F)cc3)NCc3ccc(F)cc3Cl)[nH]n2)cc1F [Compound A-327]	–	> 10	> 10
Cc1ccc(-c2cc(N/C(=N\C(=O)c3ccc(C(F)(F)F)cc3)NC(C)C)[nH]n2)cc1F [Compound A-328]	< 10	< 10	–
